The text below walks through data of patent publication US20200352912A1, “ANTIMICROBIAL COMPOSITIONS AND METHODS OF USING THE SAME” (The Board Of Supervisors Of Louisiana State University And …, priority 2018, published 2020).

One test deals with planktonic S. aureus. The test is described as follows: MIC/MBC assay (CLSI broth dilution). The format is cell-based. The settings on record: Staphylococcus aureus. As to the method: The CLSI reference method for broth dilution antimicrobial susceptibility testing of bacteria was used to determine the MIC of L-161, 982 (CLSI, 2008). Based on inhibition of S. aureus in the planktonic assay, TSB was used for all antimicrobial susceptibility testing of S. aureus. Cells were diluted in sterile TSB to a final concentration of 5.0×10^5 CFU/ml and 200-μl aliquots (1×10^5 CFU/well) were added to wells of sterile round-bottom 96-well plates. A stock solution of L-161, 982 was diluted in sterile TSB prior to addition to cells. Drug concentrations tested ranged from 1 to 100 μg/ml and were tested in triplicate. The plates were incubated at 37° C. for 24 h and the OD600 measured using a microplate spectrophotometer (BioTek Instruments, Synergy 2). Bacteriostatic or bactericidal activity was assessed by plating 20 μl of broth from all wells with no visible growth on TSA plates and plates incubated at 37° C. for 24-48 h. The MBC was the lowest drug concentration that prevented growth.

The subject of test [1] is pre-formed dual-species biofilm. The test is described as follows: pre-formed mature biofilm (XTT, CFU). Format: cell-based, C. albicans and S. aureus. The settings on record: 100 and 200 μg/ml. How it is done: The effect of L-161, 982 on pre-formed mature biofilms was tested. Mono- and dual-species C. albicans and/or S. aureus biofilms were grown on 96-well plates for 24 h before being treated with the indicated concentration of L-161, 982 for a further 24 h. After treatment, metabolic activity of biofilms was quantified by the XTT assay (A) and then biofilms were disrupted to determine live colony forming units (CFU) (B). The results are cumulative of three independent experiments with duplicate samples. Statistics were performed using One-way ANOVA with the Tukey post-hoc test for the XTT assay. The Mann-Whitney U test was used to analyze CFU data. Significance is indicated as follows: ns—not significant, *P<0.05; *** P<0.001. Error bars represent standard deviation.
Following growth as described above, microbes were washed in phosphate-buffered saline (PBS) by centrifugation, counted on a hemocytometer, and adjusted to 2×10^7 CFU/ml in RPMI buffered with MOPS (165 mM). […]
The XTT reduction assay was used to determine the metabolic activity of biofilms following treatment with L-161, 982 (17). Briefly, wells were washed once in PBS, and plates incubated at 37° C. for 2 h with 200 μl XTT working reagent (0.5 mg/ml XTT and 1 μM Menadione) and the resulting absorbance measured at 490 nm on a microplate spectrophotometer. […]
For orientation: Tetrazolium assays rely on reduction of a dye to a coloured formazan, in cell work by metabolically active cells.

Test [2] relates to LPS-activated human macrophages. The settings on record: 100 nM; cited from earlier work.
For the next test, the system named is S. aureus strain 43300. The test is described as follows: staphyloxanthin assay. The format is cell-based, Staphylococcus aureus. How it is done: Pigment (staphyloxanthin) levels were measured from cultures grown in Mueller-Hinton broth+/−L-161, 982 at 37° C. for 24 h. A) Macroscopic analysis of S. aureus pigment production. B) Pigment was extracted in methanol and optical density measured at 450 nm. Data shown are representative of two independent experiments. *** p<0.001 control vs. drug-treated.
Strains and growth conditions. The methicillin-resistant S. aureus strain NRS383 was obtained from the Network on Antimicrobial Resistance in S. aureus (NARSA) data bank. As NRS383 has little or no hemolytic activity or pigmentation, S. aureus strain 43300 (ATCC) was used for the hemolysis and staphyloxanthin assays. Frozen stocks were obtained at −80° C. and streaked onto trypticase soy agar (TSA) plates at 37° C. prior to use. A single colony was transferred to 10 ml of trypticase soy broth (TSB) and shaken at 37° C. overnight. On the following day, the overnight culture was diluted 1:100 in fresh growth medium and shaken at 37° C. for 3 h to obtain cells in mid-log growth phase.
Staphyloxanthin Assay. S. aureus was diluted 100-fold in 50 ml of TSB containing 50 or 100 μg/ml of L-161,982 and cultured shaking at 37° C. for 48 h. Control cultures were grown in broth alone. […] Cells from each culture were counted and normalized. […] Optical densities of supernatants were measured at 465 nm using a spectrophotometer.

A word on the MBC: it is the lowest tested concentration that kills the bacteria rather than only halting them. For `CCCCc1nn(-c2ccccc2C(F)(F)F)c(=O)n1Cc1ccc(-c2ccccc2S(=O)(=O)NC(=O)c2sccc2C)cc1` [L-161, 982, N-[[4′-[[3-Butyl-1,5-dihydro-5-oxo-1-[2-(trifluoromethyl)phenyl]-4H-1,2,4-triazol-4-yl]methyl][1,1′-biphenyl]-2-yl]sulfonyl]-3-methyl-2-thiophenecarboxamide], in the test with planktonic S. aureus, the MBC amounted to 100 µg/mL. Also, the MIC with planktonic S. aureus (TSB, 24 h, read-out: minimum inhibitory concentration (MIC)) turned out to be 50 µg/mL. Also, the “S. aureus CFUs recovered from pre-formed dual-species biofilm” value in test [1] is recorded as “no CFUs were recovered”. Further, in test [2], the “effect on anti-inflammatory action of PGE2” value is “reverses the anti-inflammatory action of PGE2”. In addition, the “pigmentation (staphyloxanthin)” value in the test on S. aureus strain 43300 is “loss of yellow pigmentation”.
